Test in all cases: relative viability (nuclei count vs DMSO), 5 days (fraction); higher = more cells survive
Compound in the experiment “Selisistat + Dasatinib”: C1CC(C2=C(C1)C3=C(N2)C=CC(=C3)Cl)C(=O)N [Selisistat] + Cc1nc(Nc2ncc(C(=O)Nc3c(C)cccc3Cl)s2)cc(N2CCN(CCO)CC2)n1 [Dasatinib] (partner 0.075 µM)
The method, boiled down: (§1)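 The day after seeding in 1536-well plates, lung cancer cell lines were treated by pin tool with a single drug, or with a fixed anchor-drug dose together with five library-drug doses (not always all listed) in √10 steps. After 5 days, a combined fix-and-stain solution (final 0.05% Triton X-100, 1% formaldehyde, 1 ug/ml Hoechst) was added. Nuclei counted on 4× images gave relative viability as treated counts over vehicle counts, reported as the median of duplicate plates.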

Compound in the experiment “Serdemetan + Trametinib”: c1ccc2c(CCNc3ccc(Nc4ccncc4)cc3)c[nH]c2c1 [Serdemetan] + CC(=O)Nc1cccc(-n2c(=O)n(C3CC3)c(=O)c3c(Nc4ccc(I)cc4F)n(C)c(=O)c(C)c32)c1 [Trametinib] (partner 0.02 µM)
The method, boiled down:
as §1

Compound in the experiment “Serdemetan + OSI-027”: c1ccc2c(CCNc3ccc(Nc4ccncc4)cc3)c[nH]c2c1 [Serdemetan] + COc1cccc2cc(-c3nc([C@H]4CC[C@H](C(=O)O)CC4)n4ncnc(N)c34)[nH]c12 [OSI-027] (partner 0.5 µM)
The method, boiled down: as §1

Compound in the experiment “Serdemetan + Navitoclax”: c1ccc2c(CCNc3ccc(Nc4ccncc4)cc3)c[nH]c2c1 [Serdemetan] + CC1(C)CCC(c2ccc(Cl)cc2)=C(CN2CCN(c3ccc(C(=O)NS(=O)(=O)c4ccc(N[C@H](CCN5CCOCC5)CSc5ccccc5)c(S(=O)(=O)C(F)(F)F)c4)cc3)CC2)C1 [Navitoclax] (partner 0.5 µM)
The method, boiled down:
as §1

In the case of UMC-11, the relative viability with Selisistat + Dasatinib (first compound 0.4 µM) came to 0.434; with Selisistat + Dasatinib (first compound 1.265 µM) it was 0.477; with Selisistat + Dasatinib (first compound 4 µM), 0.521; in the experiment with Selisistat + Dasatinib (first compound 12.65 µM), 0.476; in the experiment with Selisistat + Dasatinib (first compound 40 µM), 0.559; in the experiment with Serdemetan + Trametinib (first compound 0.04 µM), 0.703. Also, the relative viability with Serdemetan + Trametinib (first compound 0.1265 µM) is 0.672; with Serdemetan + Trametinib (first compound 0.4 µM), 0.619; with Serdemetan + Trametinib (first compound 1.265 µM), 0.388; in the experiment with Serdemetan + Trametinib (first compound 4 µM), 0.656; with Serdemetan + OSI-027 (first compound 0.04 µM) it was 0.563; with Serdemetan + OSI-027 (first compound 0.1265 µM) it was 0.485. Also, the relative viability with Serdemetan + OSI-027 (first compound 4 µM) is 0.428; with Serdemetan + Navitoclax (first compound 0.04 µM), 0.327; in the experiment with Serdemetan + Navitoclax (first compound 0.1265 µM) it was 0.387; in the experiment with Serdemetan + Navitoclax (first compound 0.4 µM) it was 0.314; with Serdemetan + Navitoclax (first compound 1.265 µM), 0.266; with Serdemetan + Navitoclax (first compound 4 µM), 0.313.

These data come from the supplement of paper PMC10307832.
